The test system of one assay is HepG2 WFS1 KO. In words: In vitro cell viability (CellTiter-Glo), HepG2 WFS1 KO. In kind it is cell-based. The settings on record: HepG2 WFS1 knockout, 96 hours, read-out: HepG2 WFS1 KO viability. An excerpt: A double cleavage strategy was employed to remove large fragments from the WFS1 locus. Suitable target sites in WFS1 exon 8 were first selected using CRISPR design software to rank suitable target sites and computationally predict off-target sites for each intended target. Six top guide RNA sequences are identified and screened for activity using the Surveyor Mutation Detection Kit (Integrated DNA Technologies). Then, the best 2 guide RNAs were cloned into GeneArt OFP CRISPR nuclease vectors (Thermofisher, Cat #A21174) separately and co-transfected into HepG2 cells using nucleofection (4D Nucleofector X, Lonza). Cells were sorted by FACS 48 hrs later to enrich for the OFP positive cell population. The OFP positive cell population were plated into 96-well plates at 0.5-5 cells/well to isolate clonal cell lines. After allowing cells to expand for 2-3 weeks, plates were inspected for presence of colonies. When colonies became more than 70% confluent, they were dissociated with trypsin and were further expanded. Cell clones with homozygous double cleavage of WFS1 exon 8 were detected with PCR and confirmed with DNA sequencing.
HEK293 cells containing empty pCLPCx vector (HEK293 empty), HEK293 cells stably over-expression WFS1 (HEK293 WFS1), HepG2, and HepG2 cells where WFS1 was depleted via CRISPR/Cas9 (HepG2 WFS1 KO) cells were plated into 96-well black plates (Corning, product #3904) in 100 microliters of complete DMEM cell culture media [DMEM (Life Technologies, product #11960-051) media supplemented with 10% FBS (Hyclone, catalog #SH30071.03), antimycotic/antibiotic (Life Technologies, product #15240-062), and Glutamax (Life Technologies, product #35050-061)] at 1,000 (HEK293) or 5,000 (HepG2) cells per well. Cells were allowed to attach and grow overnight, after which compounds are added at various concentrations. Cell viability was assessed 96 hrs after compound addition with CellTiter-Glo reagent (Promega, catalog #G7570) according to manufacturer's protocol and measurement on a Pherastar luminescence plate reader (BMG Labtech).
To determine the effect of WFS1 depletion on compound mediated inhibition of cell viability, parental HepG2 cells and HepG2 cells where WFS1 was deleted by CRISPR/Cas9 were exposed to increasing concentrations of either Compound 136 or Compound 253 for 96 hours after which time viability was determined using Cell Titer Glo reagent (Promega). […] The IC50s for the viability of both the HepG2 parental and WFS1 knockout cells are summarized in Table 47: A<0.5 μM; 0.5 μM≤<2.0 μM; 2.0 μM≤C<10.0 μM; D≥[…].
(In general: ATP-based viability assays read luminescence as a measure of living cells.)

A further assay has as its target Plk1 (Homo sapiens (Human), UniProt P53350). In words: PLK1 inhibition assay (radioactive-phosphate incorporation). Type of assay: biochemical. The note with it: Ki(app), read-out: PLK1 - 33P.ENZ - CB 10 Ki. The gist of the method:
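Radioactive-phosphate incorporation with 15 nM Plk1 and 9 µM Sam68 substrate, 20 µM [γ-33P]ATP, in 25 mM HEPES pH 7.5, 10 mM MgCl2, 25 mM NaCl, 2 mM DTT, 1.5% DMSO, room temperature, 45 min. Stopped with TCA/cold ATP, filtered, scintillation counted. Ki(app) from non-linear regression of background-corrected initial rates.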

Where two headings read alike, the source gives them in different places. Bounds are passed on as bounds.

Plk1, sequence (P53350 whole entry, species assumed): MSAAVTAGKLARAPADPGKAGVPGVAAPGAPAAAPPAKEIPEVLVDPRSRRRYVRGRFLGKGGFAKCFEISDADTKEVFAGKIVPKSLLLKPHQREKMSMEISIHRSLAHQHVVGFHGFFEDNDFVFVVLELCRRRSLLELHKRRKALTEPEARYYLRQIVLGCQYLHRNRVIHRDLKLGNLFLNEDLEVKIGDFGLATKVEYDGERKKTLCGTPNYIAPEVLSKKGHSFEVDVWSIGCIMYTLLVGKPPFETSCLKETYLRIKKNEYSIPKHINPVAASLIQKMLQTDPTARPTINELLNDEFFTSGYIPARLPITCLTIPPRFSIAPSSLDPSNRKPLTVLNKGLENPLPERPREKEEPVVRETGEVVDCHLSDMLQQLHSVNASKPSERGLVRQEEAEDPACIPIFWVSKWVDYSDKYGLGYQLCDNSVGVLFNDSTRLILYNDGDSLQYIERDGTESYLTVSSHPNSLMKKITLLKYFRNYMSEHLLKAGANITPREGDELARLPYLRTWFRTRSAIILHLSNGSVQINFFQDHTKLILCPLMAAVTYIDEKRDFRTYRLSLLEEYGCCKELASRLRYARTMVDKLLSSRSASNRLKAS

With `Cc1nc(NCc2cnn(CCC3CCOCC3)c2)nc2c1NC(=O)[C@H](C)N2C` [Compound 115, (7S)-4,7,8-trimethyl-2-(((1-(2-(tetrahydro-2H-pyran-4-yl)ethyl)-1H-pyrazol-4-yl)methyl)amino)-7,8-dihydropteridin-6(5H)-one], the IC50 with HepG2 WFS1 KO (Homo sapiens) is at least 10 µM.

Consider `Cc1ncc(Cn2cc(CNc3nc(C)c4c(n3)N(C)[C@@H](C(C)C)C(=O)N4)cn2)cc1F` [Compound 425, (7S)-2-(((1-((5-fluoro-6-methylpyridin-3-yl)methyl)-1H-pyrazol-4-yl)methyl)amino)-7-isopropyl-4,8-dimethyl-7,8-dihydropteridin-6(5H)-one], for which the IC50 in the assay with HepG2 WFS1 KO (Homo sapiens) was at least 10 µM.

As to `Cc1nc(NCc2cnn(Cc3ccc(F)cc3)c2)nc2c1NC(=O)C1(CC1)N2` [Compound 222, 2′-(((1-(4-fluorobenzyl)-1H-pyrazol-4-yl)methyl)amino)-4′-methyl-5′,8′-dihydro-6′H-spiro[cyclopropane-1,7′-pteridin]-6′-one], the IC50 in the assay on HepG2 WFS1 KO (Homo sapiens) is at least 10 µM.

Consider `Cc1nc(NCc2cnn(C[C@H](C)c3ccc(F)cc3)c2)nc2c1NC(=O)[C@H](C)N2C` [Compound 96, (7S)-2-(((1-((R)-2-(4-fluorophenyl)propyl)-1H-pyrazol-4-yl)methyl)amino)-4,7,8-trimethyl-7,8-dihydropteridin-6(5H)-one], for which the IC50 in the assay with HepG2 WFS1 KO (Homo sapiens) was at least 10 µM.

As to `Cc1nc(N[C@H]2C[C@H](Oc3ccnc(C(F)(F)F)c3)C2)nc2c1NC(=O)[C@H](C)N2C` [Compound 335, (7S)-4,7,8-trimethyl-2-((trans-3-((2-(trifluoromethyl)pyridin-4-yl)oxy)cyclobutyl)amino)-7,8-dihydropteridin-6(5H)-one], the Ki at Plk1 was above 4 µM.

In the case of `Cc1nc(NCc2cn(Cc3ccc(C(F)(F)F)nc3)nc2Br)nc2c1NC(=O)[C@H](C)N2C` [Compound 412, (S)-2-(((3-bromo-1-((6-(trifluoromethyl)pyridin-3-yl)methyl)-1H-pyrazol-4-yl)methyl)amino)-4,7,8-trimethyl-7,8-dihydropteridin-6(5H)-one], in the assay on HepG2 WFS1 KO (Homo sapiens), the IC50 is at least 10 µM.

As to `Cc1nc(NCc2cnn(CC(C)(O)c3ccc(F)cc3)c2)nc2c1NC(=O)[C@H](C)N2C` (stereo partly drawn) [Compound 128, (7S)-2-(((1-(2-(4-fluorophenyl)-2-hydroxypropyl)-1H-pyrazol-4-yl)methyl)amino)-4,7,8-trimethyl-7,8-dihydropteridin-6(5H)-one], the IC50 in the assay on HepG2 WFS1 KO (Homo sapiens) is at least 10 µM.

Turning to `Cc1cnc(C(F)(F)F)nc1-n1cc(CNc2ncc3c(n2)N(C)[C@@H](C)C(=O)N3)cn1` [Compound 164, (7S)-7,8-dimethyl-2-(((1-(5-methyl-2-(trifluoromethyl)pyrimidin-4-yl)-1H-pyrazol-4-yl)methyl)amino)-7,8-dihydropteridin-6(5H)-one], in the assay with HepG2 WFS1 KO (Homo sapiens), the IC50 is at least 10 µM.

In the case of `CCOc1ccc(CCn2cc(CNc3ncc4c(n3)N(C)[C@@H](C)C(=O)N4)cn2)cc1` [Compound 121, (7S)-2-(((1-(4-ethoxyphenethyl)-1H-pyrazol-4-yl)methyl)amino)-7,8-dimethyl-7,8-dihydropteridin-6(5H)-one], in the assay with HepG2 WFS1 KO (Homo sapiens), the IC50 was at least 10 µM.

As to `Cc1nc(NCc2cnn(Cc3ccc(Cl)nc3)c2)nc2c1NC(=O)[C@H](C(C)C)N2C` [Compound 409, (7S)-2-(((1-((6-chloropyridin-3-yl)methyl)-1H-pyrazol-4-yl)methyl)amino)-7-isopropyl-4,8-dimethyl-7,8-dihydropteridin-6(5H)-one], the IC50 in the assay on HepG2 WFS1 KO (Homo sapiens) was at least 10 µM.

In the case of `Cc1nc(N[C@@H]2CC[C@@H](n3ccc(C(F)(F)F)n3)C2)nc2c1NC(=O)[C@H](C)N2C` (single isomer, unassigned) [Compound 311], at Plk1, the Ki is above 4 µM.

Consider `Cc1nc(NCc2cnn(Cc3cc(C(F)(F)F)nn3C)c2)nc2c1NC(=O)[C@H](C)N2C` [Compound 160, (7S)-4,7,8-trimethyl-2-(((1-((1-methyl-3-(trifluoromethyl)-1H-pyrazol-5-yl)methyl)-1H-pyrazol-4-yl)methyl)amino)-7,8-dihydropteridin-6(5H)-one], for which the Ki on Plk1 is above 4 µM.

With `Cc1nc(NCc2cnn(Cc3ccc(F)nc3)c2)nc2c1NC(=O)[C@H](C1CC1)N2C` [Compound 421, (7S)-7-cyclopropyl-2-(((1-((6-fluoropyridin-3-yl)methyl)-1H-pyrazol-4-yl)methyl)amino)-4,8-dimethyl-7,8-dihydropteridin-6(511)-one], in the assay with HepG2 WFS1 KO, the IC50 is at least 10 µM.

With `Cc1cc(F)ncc1Cn1cc(CNc2nc(C)c3c(n2)N(C)[C@@H](C(C)C)C(=O)N3)cn1` [Compound 423, (7S)-2-(((1-((6-fluoro-4-methylpyridin-3-yl)methyl)-1H-pyrazol-4-yl)methyl)amino)-7-isopropyl-4,8-dimethyl-7,8-dihydropteridin-6(5H)-one], the IC50 with HepG2 WFS1 KO (Homo sapiens) was at least 10 µM.

Turning to `Cc1ncc(Cn2cc(CNc3nc(C)c4c(n3)N(C)[C@@H](C)C(=O)N4)cn2)cn1` [Compound 163, (7S)-4,7,8-trimethyl-2-(((1-((2-methylpyrimidin-5-yl)methyl)-1H-pyrazol-4-yl)methyl)amino)-7,8-dihydropteridin-6(5H)-one], the IC50 in the assay with HepG2 WFS1 KO (Homo sapiens) was at least 10 µM.

Regarding `Cc1nc(NCc2cn(Cc3ccc(C(F)(F)F)nc3)cn2)nc2c1NC(=O)[C@H](C)N2C` [Compound 428, (S)-4,7,8-trimethyl-2-(((1-((6-(trifluoromethyl)pyridin-3-yl)methyl)-1H-imidazol-4-yl)methyl)amino)-7,8-dihydropteridin-6(5H)-one], the IC50 with HepG2 WFS1 KO (Homo sapiens) was at least 10 µM.

Take `Cc1nn(C)cc1Cn1cc(CNc2nc(C)c3c(n2)N(C)[C@@H](C)C(=O)N3)cn1` [Compound 139, (7S)-2-(((1-((1,3-dimethyl-1H-pyrazol-4-yl)methyl)-1H-pyrazol-4-yl)methyl)amino)-4,7,8-trimethyl-7,8-dihydropteridin-6(5H)-one]: in the assay with HepG2 WFS1 KO (Homo sapiens), the IC50 is at least 10 µM.

For the molecule `Cc1nc(NCc2cnn(Cc3ccc(C(F)(F)F)nc3C(C)(C)O)c2)nc2c1NC(=O)[C@H](C)N2C` [Compound 416, (7S)-2-(((1-((2-(2-hydroxypropan-2-yl)-6-(trifluoromethyl)pyridin-3-yl)methyl)-1H-pyrazol-4-yl)methyl)amino)-4,7,8-trimethyl-7,8-dihydropteridin-6(5H)-one], the IC50 with HepG2 WFS1 KO (Homo sapiens) was at least 10 µM.

In the case of `CC[C@H]1C(=O)Nc2cnc(NCc3cnn(Cc4ccc(C(F)(F)F)nc4)c3)nc2N1C` [Compound 427, (7S)-7-ethyl-8-methyl-2-(((1-((6-(trifluoromethyl)pyridin-3-yl)methyl)-1H-pyrazol-4-yl)methyl)amino)-7,8-dihydropteridin-6(5H)-one], the IC50 in the assay on HepG2 WFS1 KO (Homo sapiens) is at least 10 µM.

As to `Cc1nc(NCc2cnn(Cc3cncc(F)c3)c2)nc2c1NC(=O)[C@H](C(C)C)N2C` [Compound 415, (7S)-2-(((1-((5-fluoropyridin-3-yl)methyl)-1H-pyrazol-4-yl)methyl)amino)-7-isopropyl-4,8-dimethyl-7,8-dihydropteridin-6(5H)-one], the IC50 in the assay on HepG2 WFS1 KO (Homo sapiens) is at least 10 µM.

As to `Cc1nc(NCc2cnn(C3CCN(C(=O)c4ccc(F)cc4)CC3)c2)nc2c1NC(=O)[C@H](C)N2C` [Compound 125, (7S)-2-(((1-(1-(4-Fluorobenzoyl)piperidin-4-yl)-1H-pyrazol-4-yl)methyl)amino)-4,7,8-trimethyl-7,8-dihydropteridin-6(5H)-one], the IC50 in the assay with HepG2 WFS1 KO (Homo sapiens) is at least 10 µM.

Regarding “(7S)-2-(((1-((6-fluoro-2-isopropylpyridin-3-yl)methyl)-1H-pyrazol-4-yl)methyl)(methyl)amino)-7-isopropyl-4,8-dimethyl-7,8-dihydropteridin-6(5H)-one [Compound 430]”, the IC50 in the assay on HepG2 WFS1 KO was at least 10 µM.

As for `Cc1nc(NCc2cnn(Cc3ccc(F)cc3)c2)nc2c1NC(=O)[C@H](C)N2C` [Compound 4, (7S)-2-(((1-(4-fluorobenzyl)-1H-pyrazol-4-yl)methyl)amino)-4,7,8-trimethyl-7,8-dihydropteridin-6(5H)-one], the Ki on Plk1 is above 4 µM.

Regarding `Cc1nc(NCc2cnn(Cc3ccc(C(F)(F)F)nc3[C@@H](C)O)c2)nc2c1NC(=O)[C@H](C)N2C` (single isomer, unassigned) [Compound 420], in the assay on HepG2 WFS1 KO (Homo sapiens), the IC50 is at least 10 µM.
